Assay results published in PubChem BioAssay AID2651 (Vanderbilt High Throughput Screening Facility, 2010).
Active and inactive are the calls of the source.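 How the source made its calls: active means mean EC50 from three replicate curves at or below a set limit; inactive means mean EC50 above a set limit.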

Target: Muscarinic acetylcholine receptor M1 (Rattus norvegicus) (UniProt P08482)
Experiment: structure-activity potentiation of ACh at M1 – cell-based, calcium mobilization, CHO-K1, SAR follow-up (AID 2651)
Settings: CHO-K1 rat M1, calcium Fluo-4, ACh EC20 potentiation

Chain of Muscarinic acetylcholine receptor M1 (Rattus norvegicus) (P08482 whole entry, looked up): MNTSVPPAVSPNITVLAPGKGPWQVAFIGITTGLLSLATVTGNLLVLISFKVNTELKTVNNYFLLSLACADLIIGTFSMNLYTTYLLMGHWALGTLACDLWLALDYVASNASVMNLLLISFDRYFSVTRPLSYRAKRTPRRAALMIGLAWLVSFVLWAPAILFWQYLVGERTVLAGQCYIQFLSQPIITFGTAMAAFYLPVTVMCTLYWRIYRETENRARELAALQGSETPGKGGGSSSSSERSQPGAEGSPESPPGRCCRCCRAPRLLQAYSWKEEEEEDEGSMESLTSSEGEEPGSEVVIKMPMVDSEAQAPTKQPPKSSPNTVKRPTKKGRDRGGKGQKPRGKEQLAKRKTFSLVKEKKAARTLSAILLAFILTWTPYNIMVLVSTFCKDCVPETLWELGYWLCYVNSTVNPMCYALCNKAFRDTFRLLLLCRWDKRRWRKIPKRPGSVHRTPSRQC

In the case of `Cc1cc(NC(=O)CS(=O)(=O)c2cn(Cc3ccc(F)c(Cl)c3)c3ccccc23)no1`, the EC50 is reported as > 30 µM (inactive).
`Cc1cc(NC(=O)CS(=O)(=O)c2cn(Cc3ccc(F)c(-c4ccn[nH]4)c3)c3ccccc23)no1` was tested, and the EC50 was > 30 µM (inactive).
`Cc1cc(NC(=O)CS(=O)(=O)c2cn(Cc3cccc(C(F)(F)F)c3)c3ccccc23)no1` was tested, and the EC50 was > 30 µM (inactive).
With `Cc1cc(NC(=O)CS(=O)(=O)c2cn(Cc3ccc(Cl)c(Cl)c3)c3ccccc23)no1` the EC50 was > 30 µM (inactive).
`Cc1cc(NC(=O)CS(=O)(=O)c2cn(Cc3cccc(-c4ccccc4)c3)c3ccccc23)no1` was tested, and the EC50 was > 30 µM (inactive).
